Results taken from PubChem BioAssay (NCI).
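Here, GI50 denotes the concentration required for 50% inhibition of growth. TGI denotes the concentration required for complete inhibition of growth.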

Tests used:
Test in all cases: inhibition of tumour cell growth, NCI panel, 384-well format
[1] = tested on: U251 glioblastoma
[2] = tested on: EKVX NSCLC
[3] = tested on: ACHN renal
[4] = tested on: PC-3 prostate
[5] = tested on: SK-MEL-5 melanoma
[6] = tested on: BT-549 breast
[7] = tested on: SW-620 colon
[8] = tested on: NCI-H23 lung
[9] = tested on: SK-MEL-28 melanoma
[10] = tested on: IGROV1 ovarian
[11] = tested on: MDA-MB-231 breast
[12] = tested on: HOP-62 NSCLC
[13] = tested on: SN12C renal
[14] = tested on: SNB-75 CNS
[15] = tested on: 786-0 renal
[16] = tested on: NCI/ADR-RES ovarian
[17] = tested on: HCT-116 colon
[18] = tested on: K-562 leukemia
[19] = tested on: MDA-MB-468 breast
[20] = tested on: CAKI-1 renal
[21] = tested on: SR leukemia
[22] = tested on: A498 renal
[23] = tested on: M14 melanoma
[24] = tested on: TK-10 renal
[25] = tested on: NCI-H226 lung
[26] = tested on: NCI-H522 lung
[27] = tested on: RXF 393 renal
[28] = tested on: CCRF-CEM leukemia
[29] = tested on: HCT-15 colon
[30] = tested on: UO-31 renal
[31] = tested on: A549 NSCLC
[32] = tested on: DU-145 prostate
[33] = tested on: RPMI-8226 leukemia
[34] = tested on: MALME-3M melanoma
[35] = tested on: NCI-H322M lung
[36] = tested on: MDA-MB-435 melanoma
[37] = tested on: SF-295 CNS
[38] = tested on: OVCAR-3 ovarian
[39] = tested on: MCF7 breast
[40] = tested on: HS 578T breast
[41] = tested on: SF-539 CNS
[42] = tested on: LOX IMVI melanoma
[43] = tested on: HT29 colon
[44] = tested on: SNB-19 CNS
[45] = tested on: COLO 205 colon
[46] = tested on: HOP-92 NSCLC
[47] = tested on: SF-268 CNS
[48] = tested on: SK-OV-3 ovarian
[49] = tested on: HCC-2998 colon
[50] = tested on: NCI-H460 NSCLC
[51] = tested on: OVCAR-5 ovarian
[52] = tested on: T-47D breast
[53] = tested on: OVCAR-4 ovarian
[54] = tested on: MOLT-4 leukemia
[55] = tested on: UACC-257 melanoma
[56] = tested on: OVCAR-8 ovarian
[57] = tested on: KM12 colon
[58] = tested on: HL-60(TB) leukemia

Cc1ccc(NC(=O)c2cccc(N(C)C)c2)cc1NC(=O)c1ccc(O)cc1
GI50 [1]: 63.5 µM
TGI [1]: > 100 µM
GI50 [2]: 45.3 µM
TGI [2]: > 100 µM
GI50 [3]: 40.2 µM
TGI [3]: > 100 µM
GI50 [4]: 41.6 µM
TGI [4]: > 100 µM
GI50 [5]: 14.9 µM
TGI [5]: 52.5 µM
GI50 [6]: 75.2 µM
TGI [6]: > 100 µM
GI50 [7]: 59.2 µM
TGI [7]: > 100 µM
GI50 [8]: 29.3 µM
TGI [8]: > 100 µM
GI50 [9]: 26.3 µM
TGI [9]: 74.1 µM
GI50 [10]: 50.1 µM
TGI [10]: > 100 µM
GI50 [11]: 32.9 µM
TGI [11]: > 100 µM
GI50 [12]: 43.6 µM
TGI [12]: > 100 µM
GI50 [13]: 57 µM
TGI [13]: > 100 µM
GI50 [14]: 54.4 µM
TGI [14]: > 100 µM
GI50 [15]: 33.5 µM
TGI [15]: > 100 µM
GI50 [16]: 38.9 µM
TGI [16]: > 100 µM
GI50 [17]: 29.6 µM
TGI [17]: > 100 µM
GI50 [18]: 12 µM
TGI [18]: 25.2 µM
GI50 [19]: 18.1 µM
TGI [19]: 50.5 µM
GI50 [20]: 54.6 µM
TGI [20]: > 100 µM
GI50 [21]: 15 µM
TGI [21]: 33.5 µM
GI50 [22]: 48.2 µM
TGI [22]: > 100 µM
GI50 [23]: 30.5 µM
TGI [23]: > 100 µM
GI50 [24]: 26.8 µM
TGI [24]: 91.2 µM
GI50 [25]: 39.6 µM
TGI [25]: > 100 µM
GI50 [26]: 29.4 µM
TGI [26]: > 100 µM
GI50 [27]: 16.6 µM
TGI [27]: 33.2 µM
GI50 [28]: 22.5 µM
TGI [28]: 70.7 µM
GI50 [29]: 30.4 µM
TGI [29]: > 100 µM
GI50 [30]: 30.4 µM
TGI [30]: > 100 µM
GI50 [31]: 41.5 µM
TGI [31]: > 100 µM
GI50 [32]: 47.5 µM
TGI [32]: > 100 µM
GI50 [33]: 12.7 µM
TGI [33]: 34.1 µM
GI50 [34]: 23.5 µM
TGI [34]: 71.5 µM
GI50 [35]: 56.7 µM
TGI [35]: > 100 µM
GI50 [36]: 34.1 µM
TGI [36]: > 100 µM
GI50 [37]: 25.9 µM
TGI [37]: 81.4 µM
GI50 [38]: 36.9 µM
TGI [38]: > 100 µM
GI50 [39]: 30.3 µM
TGI [39]: > 100 µM
GI50 [40]: 41.9 µM
TGI [40]: > 100 µM
GI50 [41]: 42.8 µM
TGI [41]: > 100 µM
GI50 [42]: 38.5 µM
TGI [42]: > 100 µM
GI50 [43]: 28.9 µM
TGI [43]: > 100 µM
GI50 [44]: 89.8 µM
TGI [44]: > 100 µM
GI50 [45]: 18.8 µM
TGI [45]: 87.2 µM
GI50 [46]: 38.9 µM
TGI [46]: > 100 µM
GI50 [47]: 48.4 µM
TGI [47]: > 100 µM
GI50 [48]: 43.2 µM
TGI [48]: > 100 µM
GI50 [49]: 16.9 µM
TGI [49]: 36.9 µM
GI50 [50]: 30.6 µM
TGI [50]: > 100 µM
GI50 [51]: 69.8 µM
TGI [51]: > 100 µM
GI50 [52]: 15.1 µM
TGI [52]: 33.6 µM
GI50 [53]: 33.8 µM
TGI [53]: > 100 µM
GI50 [54]: 16.8 µM
TGI [54]: 34.4 µM
GI50 [55]: 25.1 µM
TGI [55]: 69.1 µM
GI50 [56]: 37.3 µM
TGI [56]: > 100 µM
GI50 [57]: 30.6 µM
TGI [57]: > 100 µM
GI50 [58]: 12.5 µM
TGI [58]: 25.2 µM
